Results as given in paper PMC6501426 (Clinical Epigenetics, 2019).

Assays:
[1] = tested on: double DNMT knockout (DKO) HCT116 cells; assay: MTT proliferation assay DKO HCT116; format: cell-based, human; settings: 24 and 48 h; MC3353 at 0.5 μM after 48 h; DAC, 5-AZA up to highest dose
Method: DKO HCT116 (ATCC, VA, USA) cells were propagated in Dulbecco’s modified Eagle medium (DMEM) (Euroclone, Milan, Italy) with 10% fetal bovine serum (FBS; Euroclone, Milan, Italy), 2 mM L-glutamine (Euroclone, Milan, Italy) and antibiotics (100 U/mL penicillin, 100 µg/mL streptomycin) (Euroclone, Milan, Italy).
The MTT [3-(4,5-dimethylthiazol-2-yl)-2,5-diphenyltetrazolium bromide] (Sigma-Aldrich, Milan, Italy) assay was used to determine the proliferation of HCT116 clone and DKO HCT116 cells after treatment with MC3353, 5-AZA, and DAC. 5 × 10^4 cells/well for both cell lines were plated in 24-well plate and treated, in duplicate, with compounds at several concentrations for 24 and 48 h of induction. After treatments, MTT solution was added for 3 h at 0.5 mg/mL, the purple formazan crystals were dissolved in DMSO (Sigma-Aldrich, Milan, Italy), and the absorbance was read at a wavelength of 570 nm with reader TECAN M-200.

[2] = tested on: E-cadherin mRNA in HCT116 cells; assay: qPCR of E-cadherin in HCT116; format: cell-based, human; settings: MC3353 0.1 μM 24 h; 5-AZA, DAC every 2 days for 5 days at 0.1, 1, 5 μM
Text: (§1) RNAs were extracted by ReliaPrep™ RNA Tissue Miniprep (Promega, Madison, WI, USA) and reverse transcribed with PrimeScript RT Master Mix (Takara, Kusatsu, Shiga, Japan). cDNAs were amplified by a qPCR reaction using GoTaq qPCR Master Mix (Promega) and analyzed with the oligonucleotide pairs specific for the target genes. Relative amounts, determined with the 2^(−ΔCt) method, were normalized with respect to the human housekeeping gene L32. The primers used are as follows: L32 (forward: 5′-[…]-3′, reverse: 5′-[…]-3′), E-cadherin (forward: 5′-[…]-3′, reverse: 5′-[…]-3′), and MMP2 (forward: 5′-[…]-3′, reverse: 5′-[…]-3′).
(§2) Prompted by these findings, we investigated the ability of MC3353 to modulate EMT pathway, using 5-AZA and DAC as reference drugs. […] The levels of mRNA transcripts of E-cadherin and matrix metalloproteinase-2 (MMP2) were determined. E-cadherin is involved in the maintenance of the epithelial identity and in the control of tumor invasiveness, whereas MMP2, through degradation of type IV collagen, the most abundant component of the basement membrane, controls an essential step for metastatic progression of most cancers as well as for induction of angiogenesis.

[3] = tested on: E-cadherin mRNA in PC-3 cells; assay: qPCR of E-cadherin in PC-3; format: cell-based, human; settings: MC3353 24 h; 5-AZA, DAC 5 days, effect from 1 to 5 μM
Text: as §1, §2

[4] = tested on: MG63; assay: Osteosarcoma cell growth inhibition (trypan blue count); format: cell-based; settings: Homo sapiens, MG-63; 96 h of treatment; read-out: IC50 ± SD, cellular viability, MG63
Text: (§3) The patient-derived human OS cell lines Saos-2, U-2OS, and MG-63 were obtained from ATCC (1992). The patient-derived OS cell lines IOR/OS9, IOR/OS20, and IOR/SARG were established and previously characterized at the Laboratory of Experimental Oncology of Rizzoli Orthopedic Institute. Cell lines were profiled for DNA copy number changes and DNA methylation status at approximately 27,000 CpG sites. The cell line PDX-OS#1-C4 was obtained from OS patient-derived xenograft (PDX) after 4 passages in the animal. All cell lines were tested for mycoplasma contamination (Mycoalert Mycoplasma Detection Kit, Lonza, Verviers, Belgium) before use and authenticated by short-tandem repeat polymerase chain reaction (STR PCR) analysis (last control December 2017) using PowerPlex ESX fast System kit (Promega, Madison, WI, USA). The following loci were verified: AMEL, D3S1358, TH01, D21S11, D18S51, D10S1248, D1S1656, D2S1338, D16S539, D22S1054, VWA, D8S1179, FGA, D2S441, D12S391, D19S433, and SE33. All cell lines were immediately amplified to constitute liquid nitrogen stocks and were never passaged for more than 1 month upon thawing. Cells were maintained in Iscove’s modified Dulbecco’s medium (IMDM) supplemented with 10% heat-inactivated FBS (Lonza, Verviers, Belgium), penicillin (20 U/mL), and streptomycin (100 μg/mL) (Sigma-Aldrich, Milan, Italy) in 37 °C humidified at 5% CO2.
(§4) To perform osteosarcoma cell growth inhibition experiments, 2 × 10^5 cells/well were plated, and MC3353 (0.1–30 μM) or DAC (0.5 μM) was added after 24 h. Cells were exposed for up to 96 h before being counted by Trypan blue vital cell count (Sigma-Aldrich, Milan, Italy). In parallel, the cells were treated with DMSO-containing medium as a control. The highest final concentration of DMSO in the medium was < 0.005%, and DMSO had no effect on cell growth.
(§5) IC50 values of compounds against cellular viability were determined by using nonlinear regression fitting curves with GraphPad Prism 8 or CalcuSyn software The t test used for statistical analyses was performed with GraphPad Prism 8. All the tests were one-tailed, and a p value < 0.05 was considered statistically significant.

[5] = tested on: U-2OS; assay: as above; format: cell-based; settings: Homo sapiens, U2OS; 96 h of treatment; read-out: IC50 ± SD, cellular viability, U-2OS
Text: as §3, §4, §5

[6] = tested on: Saos-2; assay: as above; format: cell-based; settings: Homo sapiens, 96 h of treatment, read-out: IC50 ± SD, cellular viability, Saos-2
Text: as §3, §4, §5

[7] = tested on: IOR/OS9; assay: as above; format: cell-based; settings: Homo sapiens; 96 h of treatment; read-out: IC50 ± SD, cellular viability, IOR/OS9
Text: as §3, §4, §5

[8] = tested on: IOR/OS20; assay: as above; format: cell-based; settings: Homo sapiens; 96 h of treatment; read-out: IC50 ± SD, cellular viability, IOR/OS20
Text: as §3, §4, §5

[9] = tested on: IOR/SARG; assay: as above; format: cell-based; settings: Homo sapiens; 96 h of treatment; read-out: IC50 ± SD, cellular viability, IOR/SARG
Text: as §3, §4, §5

[10] = tested on: PDX-OS#1-C4; assay: as above; format: cell-based; settings: Homo sapiens; 96 h of treatment; read-out: IC50 ± SD, cellular viability, PDX-OS#1-C4
Text: as §3, §4, §5

[11] = tested on: MMP2 mRNA in HCT116 cells; assay: qPCR of MMP2 in HCT116; format: cell-based, human; settings: MC3353 0.1 and 1 μM 24 h; 5-AZA, DAC 5 days, also at 0.1 to 1 μM
Text: as §1, §2

[12] = tested on: MMP2 mRNA in PC-3 cells; assay: qPCR of MMP2 in PC-3; format: cell-based, human; settings: MC3353 0.1 and 1 μM 24 h; 5-AZA, DAC 5 days, also at 0.1 to 1 μM
Text: as §1, §2

SMILES | effect on DKO HCT116 proliferation (MTT) [1] | E-cadherin mRNA expression, HCT116 [2] | E-cadherin mRNA expression, PC-3 [3] | IC50 [4] | IC50 [5] | IC50 [6] | IC50 [7] | IC50 [8] | IC50 [9] | IC50 [10] | MMP2 mRNA expression, HCT116 [11] | MMP2 mRNA expression, PC-3 [12]
O=C(Nc1ccc(NC(=O)c2ccc(Nc3ccnc4ccccc34)cc2)cc1)OCc1ccccc1 [MC3353, Benzyl (4-(4-(quinolin-4-ylamino)benzamido)phenyl)carbamate] | markedly less efficient to impair cell proliferation | induced E-cadherin mRNA expression transcripts | this effect was observed only at 1 μM dose | 2400 ± 1700 nM | 1400 ± 100 nM | 1100 ± 300 nM | 2000 ± 100 nM | 1500 ± 100 nM | 1500 ± 100 nM | 2000 ± 100 nM | strongly downregulated | strongly downregulated
Nc1ncn([C@H]2C[C@H](O)[C@@H](CO)O2)c(=O)n1 [DAC, 5-aza-2′-deoxycytidine, reference compound] | No evidence of cytotoxicity | able to induce E-cadherin expression | able to induce E-cadherin expression | 200 ± 200 nM | 1100 ± 900 nM | 1000 ± 900 nM | 5700 ± 3400 nM | 9200 ± 2200 nM | 5400 ± 1000 nM | 700 ± 600 nM | increased MMP2 level | increased MMP2 level
